Each structure is given as a SMILES string.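 How tested: cells in 96-well plates exposed to compound for 48 hours at five concentrations. Here, GI50 denotes the concentration required for 50% inhibition of growth. TGI is the concentration that stops growth completely.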

One experiment deals with LXFL 529 NSCLC. As to the kind of experiment: NCI tumour cell line growth inhibition, 48 h.
The compound `OCc1ccccc1C1CSCSC1` displayed a TGI greater than 100 µM.

The subject of a further experiment is M19-MEL melanoma. As to the kind of experiment: NCI tumour cell line growth inhibition, 48 h.
Regarding `O=C1C(Cl)N(c2ccccc2)C1c1c[nH]c2ccccc12` (stereo not drawn), the TGI was greater than 100 µM.

As for `Cc1nc2nnc(C)n2c2c1C(=O)Nc1ccccc1N2`, the TGI is greater than 100 µM.

As for `O=C(OCc1ccccc1)OOC(=O)OCc1ccccc1`, the TGI is greater than 100 µM.

Turning to `Cc1cc2cccc(Cl)c2nc1C(=O)c1ccccc1`, the TGI is greater than 100 µM.

`COc1cc([C@@H]2c3cc4c(cc3C[C@H]3COC(=O)[C@@H]32)OCO4)cc(OC)c1OC` yielded a TGI greater than 50 µM.

In the case of `CC(=O)Nc1ccc(Cl)c(Cl)c1`, the TGI is greater than 100 µM.

For the compound `CC(C)=CC1C(C(=O)O)C1(C)C` (stereo not drawn), the TGI was greater than 750 µM.

In turn, `c1ccc(N=c2snc(-c3ccccc3)s2)cc1` registered a TGI greater than 100 µM.

Turning to `OCc1ccccc1C1CSCSC1`, the TGI was greater than 100 µM.

The subject of a further experiment is OVCAR-4 ovarian. As to the kind of experiment: NCI tumour cell line growth inhibition, 48 h.
Regarding `C=CCCCC12CCCc3cccc(c31)NC2=O` (stereo not drawn), the TGI worked out at 39.8 µM.

`O=C1C(Cl)N(c2ccccc2)C1c1c[nH]c2ccccc12` (stereo not drawn) displayed a TGI greater than 100 µM.

`O=C(OCc1ccccc1)OOC(=O)OCc1ccccc1`: the TGI was greater than 100 µM.

Take `Cc1cc2cccc(Cl)c2nc1C(=O)c1ccccc1`: the TGI was greater than 100 µM.

Turning to `COc1cc([C@@H]2c3cc4c(cc3C[C@H]3COC(=O)[C@@H]32)OCO4)cc(OC)c1OC`, the GI50 is 21.8 µM and the TGI is greater than 50 µM.

Take `Cc1ccc(C(=O)Nc2ccc(CP(=O)(O)O)cc2)cc1NC(=O)c1cccc(NC(=O)Nc2cccc(C(=O)Nc3cc(C(=O)Nc4ccc(CP(=O)(O)O)cc4)ccc3C)c2)c1`: the TGI is greater than 100 µM.

The compound `CCOC(=O)c1cnc2[nH]ccn2c1=O` had a TGI greater than 10 µM.

`O=C(CCc1ccc(O)cc1)c1c(O)cc(O)cc1OC1OC(CO)C(O)C(O)C1O` (stereo not drawn) yielded a TGI greater than 100 µM.

The compound `CC(C)=CC1C(C(=O)O)C1(C)C` (stereo not drawn) registered a TGI greater than 750 µM.

As to `O=C1C(Br)=Cc2c(Cl)sc(Cl)c21`, the TGI was determined as 8.81 µM.

Compound `O=[N+]([O-])C(=C(Sc1ccccc1)Sc1ccccc1)C(Cl)=C(Cl)Cl` came in with a TGI of 1.46 µM.

In turn, `NCCCC(N)C(=O)O` (stereo not drawn) showed a TGI greater than 100 µM.

In turn, `CCOC(=O)C1C(=O)CC(O)(c2ccccc2)C(C(=O)OCC)C1c1ccc(OC)cc1` (stereo not drawn) returned a TGI greater than 100 µM.

`c1ccc(N=c2snc(-c3ccccc3)s2)cc1` had a TGI greater than 100 µM.

Take `COc1cc2c(cc1OC)C(=O)/C(=C/c1cc(C)c(O)c(C)c1)C2`: the TGI was greater than 100 µM.

In turn, `OCc1ccccc1C1CSCSC1` had a TGI greater than 100 µM.

In turn, `COC(=O)CCCC(=O)C(=Nc1c(Cl)cccc1Cl)NNc1ccc(Cl)cc1` came in with a TGI greater than 100 µM.

On to `C=CC/C(C(=O)OC)=C(/C(=O)OC)N(CCC)CCC`, for which the TGI was greater than 100 µM.

`N#CC(C#N)=C1CCCS(=O)(=O)c2ccccc21` had a TGI greater than 100 µM.

In another experiment the test system is P388 leukemia. As to the kind of experiment: NCI tumour cell line growth inhibition, 48 h.
Take `COc1cc([C@@H]2c3cc4c(cc3C[C@H]3COC(=O)[C@@H]32)OCO4)cc(OC)c1OC`: the TGI was greater than 15.8 µM.

Compound `CC(C)=CC1C(C(=O)O)C1(C)C` (stereo not drawn) registered a TGI greater than 750 µM.

Another experiment relates to P388/ADR leukemia. The experiment can be described thus: NCI tumour cell line growth inhibition, 48 h.
The compound `COc1cc([C@@H]2c3cc4c(cc3C[C@H]3COC(=O)[C@@H]32)OCO4)cc(OC)c1OC` registered a TGI of 0.502 µM.

Compound `CC(C)=CC1C(C(=O)O)C1(C)C` (stereo not drawn) registered a TGI greater than 750 µM.

Another experiment deals with PC-3 prostate. As to the kind of experiment: NCI tumour cell line growth inhibition, 48 h.
For the compound `Cc1ccc(C(=O)Nc2ccc(CP(=O)(O)O)cc2)cc1NC(=O)c1cccc(NC(=O)Nc2cccc(C(=O)Nc3cc(C(=O)Nc4ccc(CP(=O)(O)O)cc4)ccc3C)c2)c1`, the TGI is greater than 100 µM.

`CCOC(=O)c1cnc2[nH]ccn2c1=O` gave a TGI greater than 10 µM.

Regarding `O=C(CCc1ccc(O)cc1)c1c(O)cc(O)cc1OC1OC(CO)C(O)C(O)C1O` (stereo not drawn), the TGI is greater than 100 µM.

In turn, `O=C1C(Br)=Cc2c(Cl)sc(Cl)c21` gave a TGI of 6.83 µM.

`O=[N+]([O-])C(=C(Sc1ccccc1)Sc1ccccc1)C(Cl)=C(Cl)Cl`: the TGI stood at 5.78 µM.

In turn, `NCCCC(N)C(=O)O` (stereo not drawn) gave a TGI greater than 100 µM.

`CCOC(=O)C1C(=O)CC(O)(c2ccccc2)C(C(=O)OCC)C1c1ccc(OC)cc1` (stereo not drawn) had a TGI greater than 96.4 µM.

Take `COc1cc2c(cc1OC)C(=O)/C(=C/c1cc(C)c(O)c(C)c1)C2`: the TGI was greater than 100 µM.

For `COC(=O)CCCC(=O)C(=Nc1c(Cl)cccc1Cl)NNc1ccc(Cl)cc1`, the TGI is greater than 100 µM.

The compound `C=CC/C(C(=O)OC)=C(/C(=O)OC)N(CCC)CCC` had a TGI greater than 100 µM.

`N#CC(C#N)=C1CCCS(=O)(=O)c2ccccc21` had a TGI greater than 100 µM.

Another experiment relates to RXF-631 renal. The experiment can be described thus: NCI tumour cell line growth inhibition, 48 h.
Consider `C=CCCCC12CCCc3cccc(c31)NC2=O` (stereo not drawn), for which the TGI stood at 55.6 µM.

Regarding `Cc1cc2cccc(Cl)c2nc1C(=O)c1ccccc1`, the TGI is greater than 100 µM.

In the next experiment the test system is SN12K1 renal. As to the kind of experiment: NCI tumour cell line growth inhibition, 48 h.
`COc1cc([C@@H]2c3cc4c(cc3C[C@H]3COC(=O)[C@@H]32)OCO4)cc(OC)c1OC` showed a TGI greater than 3.86 µM.

Regarding `CC(C)=CC1C(C(=O)O)C1(C)C` (stereo not drawn), the TGI was greater than 750 µM.

A further experiment relates to SNB-78 CNS. The experiment can be described thus: NCI tumour cell line growth inhibition, 48 h.
As to `Cc1nc2nnc(C)n2c2c1C(=O)Nc1ccccc1N2`, the TGI is greater than 100 µM.

Compound `O=C(OCc1ccccc1)OOC(=O)OCc1ccccc1` came in with a TGI greater than 100 µM.

In turn, `Cc1cc2cccc(Cl)c2nc1C(=O)c1ccccc1` came in with a TGI greater than 100 µM.

`COc1cc([C@@H]2c3cc4c(cc3C[C@H]3COC(=O)[C@@H]32)OCO4)cc(OC)c1OC`: the TGI was greater than 50 µM.

Consider `CC(=O)Nc1ccc(Cl)c(Cl)c1`, for which the TGI was greater than 100 µM.

For the compound `c1ccc(N=c2snc(-c3ccccc3)s2)cc1`, the TGI is greater than 100 µM.

`OCc1ccccc1C1CSCSC1` returned a TGI greater than 100 µM.

The next experiment has as its system XF 498 CNS. As to the kind of experiment: NCI tumour cell line growth inhibition, 48 h.
`C=CCCCC12CCCc3cccc(c31)NC2=O` (stereo not drawn) gave a TGI of 41.7 µM.

`O=C1C(Cl)N(c2ccccc2)C1c1c[nH]c2ccccc12` (stereo not drawn) yielded a TGI greater than 100 µM.

In turn, `Cc1nc2nnc(C)n2c2c1C(=O)Nc1ccccc1N2` returned a TGI greater than 100 µM.

On to `Cc1cc2cccc(Cl)c2nc1C(=O)c1ccccc1`, for which the TGI is greater than 100 µM.

`COc1cc([C@@H]2c3cc4c(cc3C[C@H]3COC(=O)[C@@H]32)OCO4)cc(OC)c1OC` had a TGI of 1.88 µM.

The compound `CC(C)=CC1C(C(=O)O)C1(C)C` (stereo not drawn) displayed a TGI greater than 75 µM.

Compound `OCc1ccccc1C1CSCSC1` yielded a TGI greater than 100 µM.
